These compounds were tested against T1, human Cot/Tpl2 kinase (Homo sapiens, UniProt P41279) (assay: Tpl2/Cot kinase assay: GST-MEK1 phosphorylation detected by ELISA (DELFIA Eu)). Settings: 0.4 nM Tpl2, 35 nM GST-MEK1, 50 uM ATP, 1 h at 30° C.
T1 construct: human Cot/Tpl2 kinase construct encoding residues 30-398; 6His (N); made in house; host or cells: Sf9 insect cells, baculovirus system (BD Biosciences)
Assay type: biochemical
Outline: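 Substrate phosphorylation (GST-MEK1 Ser217/221) quantified by DELFIA europium ELISA, yielding IC50 values. Reaction: 1 h at 30° C, pH 7.2 MOPS buffer, 50 uM ATP, 35 nM GST-MEK1, 0.4 nM monomeric His-Tpl2 purified from Sf9 cells, compounds at 1% final DMSO; stopped with EDTA.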

T1 sequence (P41279 30-398): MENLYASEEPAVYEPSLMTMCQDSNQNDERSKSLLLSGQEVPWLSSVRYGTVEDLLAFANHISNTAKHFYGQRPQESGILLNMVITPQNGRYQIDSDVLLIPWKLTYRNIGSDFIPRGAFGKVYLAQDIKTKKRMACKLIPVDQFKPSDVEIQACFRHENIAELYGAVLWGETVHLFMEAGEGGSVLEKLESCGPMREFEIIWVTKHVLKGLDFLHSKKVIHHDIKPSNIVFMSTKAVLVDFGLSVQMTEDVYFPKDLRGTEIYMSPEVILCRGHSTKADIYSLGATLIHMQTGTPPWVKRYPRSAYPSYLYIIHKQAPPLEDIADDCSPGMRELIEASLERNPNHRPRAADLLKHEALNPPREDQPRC

| IC50 | SMILES |
| --- | --- |
| 0.0032 µM | Cc1c(CNc2ccc3ncc(C#N)c(Nc4ccc(F)c(Cl)c4)c3c2)ncn1C [Example 128, 4-(3-chloro-4-fluorophenylamino)-6-((1,5-dimethyl-1H-imidazol-4-yl)methylamino)quinoline-3-carbonitrile] |
| 0.014 µM | Cc1c(CNc2ccc3ncc(C#N)c(Nc4ccc(F)c(Cl)c4)c3c2)ncn1CCN1CCOCC1 [Example 129, 4-(3-chloro-4-fluorophenylamino)-6-((5-methyl-1-(2-morpholinoethyl)-1H-imidazol-4-yl)methylamino)quinoline-3-carbonitrile] |
| 0.26 µM | Cc1ncn(CCN2CCOCC2)c1CNc1ccc2ncc(C#N)c(Nc3ccc(F)c(Cl)c3)c2c1 [Example 130, 4-(3-chloro-4-fluorophenylamino)-6-((4-methyl-1-(2-morpholinoethyl)-1H-imidazol-5-yl)methylamino)quinoline-3-carbonitrile] |
| 17.3 µM | Cc1nn(C)c(Cl)c1CNc1ccc2ncc(C#N)c(Nc3ccc(F)c(Cl)c3)c2c1 [Example 132, 6-((5-chloro-1,3-dimethyl-1H-pyrazol-4-yl)methylamino)-4-(3-chloro-4-fluorophenylamino)quinoline-3-carbonitrile] |
| 0.2 µM | Cc1ncn(C)c1CNc1ccc2ncc(C#N)c(Nc3ccc(F)c(Cl)c3)c2c1 [Example 133, 4-(3-chloro-4-fluorophenylamino)-6-((1,4-dimethyl-1H-imidazol-5-yl)methylamino)quinoline-3-carbonitrile] |
| > 40 µM | Cn1cc(Cl)c(CNc2ccc3ncc(C#N)c(Nc4ccc(F)c(Cl)c4)c3c2)n1 [Example 135, 6-((4-chloro-1-methyl-1H-pyrazol-3-yl)methylamino)-4-(3-chloro-4-fluorophenylamino)quinoline-3-carbonitrile] |
| 0.064 µM | N#Cc1cnc2ccc(NCc3nccn3CC(=O)O)cc2c1Nc1ccc(F)c(Cl)c1 [Example 136, 2-(2-((4-(3-chloro-4-fluorophenylamino)-3-cyanoquinolin-6-ylamino)methyl)-1H-imidazol-1-yl)acetic acid] |
| 0.028 µM | COC(=O)Cn1ccnc1CNc1ccc2ncc(C#N)c(Nc3ccc(F)c(Cl)c3)c2c1 [Example 137, Methyl 2-(2-((4-(3-chloro-4-fluorophenylamino)-3-cyanoquinolin-6-ylamino)methyl)-1H-imidazol-1-yl)acetate] |
| 0.027 µM | N#Cc1cnc2ccc(NCc3nccn3CC(=O)N3CCOCC3)cc2c1Nc1ccc(F)c(Cl)c1 [Example 138, 4-(3-chloro-4-fluorophenylamino)-6-((1-(2-morpholino-2-oxoethyl)-1H-imidazol-2-yl)methylamino)quinoline-3-carbonitrile] |
| 0.099 µM | N#Cc1cnc2ccc(NCc3nccn3CC(N)=O)cc2c1Nc1ccc(F)c(Cl)c1 [Example 139, 2-(2-((4-(3-chloro-4-fluorophenylamino)-3-cyanoquinolin-6-ylamino)methyl)-1H-imidazol-1-yl)acetamide] |
| 0.02 µM | CN(C)C(=O)Cn1ccnc1CNc1ccc2ncc(C#N)c(Nc3ccc(F)c(Cl)c3)c2c1 [Example 140, 2-(2-((4-(3-chloro-4-fluorophenylamino)-3-cyanoquinolin-6-ylamino)methyl)-1H-imidazol-1-yl)-N, N-dimethylacetamide] |
| 0.12 µM | CN1CCN(C(=O)Cn2ccnc2CNc2ccc3ncc(C#N)c(Nc4ccc(F)c(Cl)c4)c3c2)CC1 [Example 141, 4-(3-chloro-4-fluorophenylamino)-6-((1-(2-(4-methylpiperazin-1-yl)-2-oxoethyl)-1H-imidazol-2-yl)methylamino)quinoline-3-carbonitrile] |
| 0.75 µM | N#Cc1cnc2ccc(NCc3nccn3CC(=O)NC3CCNCC3)cc2c1Nc1ccc(F)c(Cl)c1 [Example 143, 2-(2-((4-(3-chloro-4-fluorophenylamino)-3-cyanoquinolin-6-ylamino)methyl)-1H-imidazol-1-yl)-N-(piperidin-4-yl)acetamide] |
| 5.3 µM | N#Cc1cnc2ccc(NCc3ccc(F)cc3)cc2c1Nc1ccc(F)c(Cl)c1 [Example 146, 6-(4-fluorobenzylamino)-4-(3-chloro-4-fluorophenylamino)quinoline-3-carbonitrile] |
| 1.6 µM | N#Cc1cnc2ccc(NCc3cccc(Br)c3)cc2c1Nc1ccc(F)c(Cl)c1 [Example 147, 6-(3-bromobenzylamino)-4-(3-chloro-4-fluorophenylamino)quinoline-3-carbonitrile] |
| 0.61 µM | N#Cc1cnc2ccc(NCc3ccc(O)c(Cl)c3)cc2c1Nc1ccc(F)c(Cl)c1 [Example 151, 6-(3-chloro-4-hydroxybenzylamino)-4-(3-chloro-4-fluorophenylamino)quinoline-3-carbonitrile] |
| 1.3 µM | N#Cc1cnc2ccc(NCc3cccc(Cl)c3)cc2c1Nc1ccc(F)c(Cl)c1 [Example 152, 6-(3-chlorobenzylamino)-4-(3-chloro-4-fluorophenylamino)quinoline-3-carbonitrile] |
| 9.2 µM | N#Cc1cnc2cc(OCCCN3CCOCC3)c(NCc3cnc[nH]3)cc2c1Nc1ccc(F)c(Cl)c1 [Example 159, 6-((1H-imidazol-5-yl)methylamino)-4-(3-chloro-4-fluorophenylamino)-7-(3-morpholinopropoxy)quinoline-3-carbonitrile] |
| > 40 µM | N#Cc1cnc2cc(N3CCOCC3)c(NCc3cnc[nH]3)cc2c1Nc1ccc(F)c(Cl)c1 [Example 160, 6-((1H-imidazol-5-yl)methylamino)-4-(3-chloro-4-fluorophenylamino)-7-morpholinoquinoline-3-carbonitrile] |

Second part, the compound before the results:

| SMILES | IC50 |
| --- | --- |
| Cc1cc(NCc2cccnc2)cc2c(Nc3cccc(Br)c3)c(C#N)cnc12 [Example 126, 4-(3-bromophenylamino)-8-methyl-6-(pyridin-3-ylmethylamino)quinoline-3-carbonitrile] | 3.3 µM |
| CC(Nc1ccc2ncc(C#N)c(Nc3ccc(F)c(Cl)c3)c2c1)c1ccccn1 (stereo not shown) [Example 127, 4-(3-chloro-4-fluorophenylamino)-6-(1-(pyridin-2-yl)ethylamino)quinoline-3-carbonitrile] | 0.064 µM |
| Cc1cc(NCCN2CCOCC2)cc2c(Nc3cccc(Br)c3)c(C#N)cnc12 [Example 131, 4-(3-bromophenylamino)-8-methyl-6-(2-morpholinoethylamino)quinoline-3-carbonitrile] | 16 µM |
| CN(C)Cc1cc(NCCN2CCOCC2)cc2c(Nc3cccc(Br)c3)c(C#N)cnc12 [Example 134, 4-(3-bromophenylamino)-8-((dimethylamino)methyl)-6-(2-morpholinoethylamino)quinoline-3-carbonitrile] | > 40 µM |
| CC(C)(C)OC(=O)N1CCC(NC(=O)Cn2ccnc2CNc2ccc3ncc(C#N)c(Nc4ccc(F)c(Cl)c4)c3c2)CC1 [Example 142, tert-butyl 4-(2-(2-((4-(3-chloro-4-fluorophenylamino)-3-cyanoquinolin-6-ylamino)methyl)-1H-imidazol-1-yl)acetamido)piperidine-1-carboxylate] | 1.8 µM |
| N#Cc1cnc2ccc(NCc3ccccc3F)cc2c1Nc1ccc(F)c(Cl)c1 [Example 144, 6-(2-fluorobenzylamino)-4-(3-chloro-4-fluorophenylamino)quinoline-3-carbonitrile] | 0.92 µM |
| N#Cc1cnc2ccc(NCc3cccc(F)c3)cc2c1Nc1ccc(F)c(Cl)c1 [Example 145, 6-(3-fluorobenzylamino)-4-(3-chloro-4-fluorophenylamino)quinoline-3-carbonitrile] | 2.1 µM |
| N#Cc1cnc2ccc(NCc3cccc(OC(F)(F)F)c3)cc2c1Nc1ccc(F)c(Cl)c1 [Example 148, 6-(3-(trifluoromethoxy)benzylamino)-4-(3-chloro-4-fluorophenylamino)quinoline-3-carbonitrile] | 2.2 µM |
| N#Cc1cnc2ccc(NCc3cccc(C(F)(F)F)c3)cc2c1Nc1ccc(F)c(Cl)c1 [Example 149, 6-(3-(trifluoromethyl)benzylamino)-4-(3-chloro-4-fluorophenylamino)quinoline-3-carbonitrile] | 1.5 µM |
| N#Cc1cnc2ccc(NCc3cccc(Oc4ccccc4)c3)cc2c1Nc1ccc(F)c(Cl)c1 [Example 150, 6-(3-phenoxybenzylamino)-4-(3-chloro-4-fluorophenylamino)quinoline-3-carbonitrile] | 6.4 µM |
| N#Cc1cnc2c(Br)cc(NCc3nn[nH]c3-c3ccccc3C(F)(F)F)cc2c1Nc1ccc(F)c(Cl)c1 [Example 153, 8-bromo-4-[(3-chloro-4-fluorophenyl)amino]-6-[({5-[2-(trifluoromethyl)phenyl]-1H-1,2,3-triazol-4-yl}methyl)amino]quinoline-3-carbonitrile] | 0.22 µM |
| CN(C)Cc1ccc2cc(CNc3ccc4ncc(C#N)c(Nc5ccc(F)c(Cl)c5)c4c3)[nH]c2c1 [Example 154, 4-(3-chloro-4-fluorophenylamino)-6-((6-((dimethylamino)methyl)-1H-indol-2-yl)methylamino)quinoline-3-carbonitrile] | 2.5 µM |
| CN(C)C(=O)c1ccc2cc(CNc3ccc4ncc(C#N)c(Nc5ccc(F)c(Cl)c5)c4c3)[nH]c2c1 [Example 155, 2-((4-(3-chloro-4-fluorophenylamino)-3-cyanoquinolin-6-ylamino)methyl)-N,N-dimethyl-1H-indole-6-carboxamide] | 1.5 µM |
| CN(C)C(=O)c1ccc2cc(CNc3ccc4ncc(C#N)c(Nc5ccc(F)c(Cl)c5)c4c3)n(C)c2c1 [Example 156, 2-((4-(3-chloro-4-fluorophenylamino)-3-cyanoquinolin-6-ylamino)methyl)-N,N,1-trimethyl-1H-indole-6-carboxamide] | 0.42 µM |
| N#Cc1cnc2ccc(NCc3cc4ccccc4[nH]3)cc2c1Nc1ccc(F)c(Cl)c1 [Example 157, 6-((1H-indol-2-yl)methylamino)-4-(3-chloro-4-fluorophenylamino)quinoline-3-carbonitrile] | 8.5 µM |

From patent US20060264460A1 (Wyeth, priority 2005, published 2006)
